Residues, ends and D or L forms follow the SMILES beside them. *: point of attachment. Palmitoyl = CCCCCCCCCCCCCCCC(=O)*
How the values were obtained:
Type in all cases: cell-based, human
TRPV6 D580K = test: NFAT screen, TRPV6 D580K; details: HEK293 cells; 5 μM cis-22a, 2 h, vs DMSO
Description: (§1) N-terminally TagRFP-labeled human TRPV6 (725 aa) was kindly provided by R. Bhardwaj and M. Hediger (University of Bern, Bern, Switzerland). This variant is translated from the first ATG codon and thus deviates from the non-ATG-initiated protein which is expressed in vivo (accession number NM_018646.6) by lacking 40 amino acids of the very N-terminus. For N-terminal labeling with EYFP, TRPV6 was cloned into pEYFP-C1 (Clontech) via EcoRI and SacII restriction sites. […]
(§2) After incubation, cover slips were carefully rinsed with phenol red-free DMEM supplemented with the compound and dosage corresponding to the previous incubation, which was then also present during imaging. […] Subcellular NFAT localization of TRPV6 expressing cells was again monitored on an Axiovert 135 inverted microscope (Zeiss, Oberkochen, Germany), as described in more detail before. […] Images were analyzed using Matlab2018a, differentiating between three cell populations based on the ratio of CFP emission intensity originating from the nucleus and the cytosol, similar to Schober et al. (2019).

TRPV6 W583F = test: NFAT screen, TRPV6 W583F; details: HEK293 cells; 5 μM cis-22a, 2 h, vs DMSO
Description: as §1, §2

TRPV6 H582A = test: NFAT screen, TRPV6 H582A; details: HEK293 cells; 5 μM cis-22a, 2 h, vs DMSO; analysable cells hardly present
Description: as §1, §2

TRPV6 W583A = test: NFAT screen, TRPV6 W583A; details: HEK293 cells; 5 μM cis-22a, 2 h, vs DMSO; analysable cells hardly present
Description: as §1, §2

TRPV6 W593A = test: NFAT screen, TRPV6 W593A; details: HEK293 cells; 5 μM cis-22a, 2 h
Description: as §1, §2

TRPV6 R589A = test: NFAT screen, TRPV6 R589A; details: HEK293 cells; 5 μM cis-22a, 2 h; same for solvent control
Description: as §1, §2

TRPV6 R470A W583F [1] = test: NFAT screen, TRPV6 R470A W583F; details: HEK293 cells; 5 μM cis-22a, 2 h
Description: as §1, §2

TRPV6 K484A = test: Whole-cell patch clamp, TRPV6 K484A; details: HEK293 cells; 10 μM pal-PIP2 peptide; p < 0.05; Figure 4D
Source text: (§3) N-terminally TagRFP-labeled human TRPV6 (725 aa) was kindly provided by R. Bhardwaj and M. Hediger (University of Bern, Bern, Switzerland). This variant is translated from the first ATG codon and thus deviates from the non-ATG-initiated protein which is expressed in vivo (accession number NM_018646.6) by lacking 40 amino acids of the very N-terminus. For N-terminal labeling with EYFP, TRPV6 was cloned into pEYFP-C1 (Clontech) via EcoRI and SacII restriction sites. Mutations (F468A, R470A, F472A, K484A/Q, G488R, R492A/Q, I575A, G579A, D580A/K, H582A, W583A/F, H587A, R589A, W593A, R632A/Q, R470A, W583F) were introduced using the QuickChange XL site-directed mutagenesis kit (Stratagene, San Diego, CA, USA) and Pfu DNA Polymerase (Promega, Madison, WI, USA). pTagRFP-hTRPV6 I575A was kindly provided by the lab of M. Hediger (University of Bern, Bern, Switzerland). Forward and reverse primers for site-directed mutagenesis were synthesized by Eurofins genomics GmbH (Wien, Vienna, Austria). Intactness of the constructs in terms of sequence was confirmed by sequencing (Microsynth Austria GmbH, Wien, Vienna, Austria; Eurofins genomics GmbH, Wien, Vienna, Austria). […]
(§4) Electrophysiological experiments were performed at 20 °C to 24 °C in whole-cell recording configurations of the patch clamp technique. […] The liquid junction potential was determined as 12 mV; the voltages were not adjusted. […]

TRPV6 I575A = test: Whole-cell patch clamp, TRPV6 I575A; details: HEK293 cells, 10 μM pal-PIP2 peptide, Figure 5C (substitution reduces the inhibition)
Source text: as §3, §4

TRPV6 R470A W583F [2] = test: Whole-cell patch clamp, TRPV6 R470A W583F; details: HEK293 cells; 10 μM pal-PIP2 peptide; Figure 6A; compared with W583F
Source text: as §3, §4

Structure (SMILES)	change of nuclear NFAT localization (TRPV6 D580K)	change of nuclear NFAT localization (TRPV6 W583F)	change of nuclear NFAT localization (TRPV6 H582A)	change of nuclear NFAT localization (TRPV6 W583A)	reduction in nuclear NFAT (TRPV6 W593A)	nuclear targeting of NFAT (TRPV6 R589A)	NFAT localization patterns (TRPV6 R470A W583F [1])	sensitivity to peptide-based PIP2 sequestration vs WT (TRPV6 K484A)	inhibitory effect of pal-PIP2 peptide vs WT (TRPV6 I575A)	resistance to inhibition by pal-PIP2 peptide (TRPV6 R470A W583F [2])
Cc1cccc(C2CCC(N3CCN(c4cccnc4)CC3)CC2)c1.O=C(O)C(F)(F)F (stereo not drawn) [cis-22a]	not significantly changed	not significantly changed	nuclear NFAT localization was higher for cis-22a-treated cells compared to the DMSO control	nuclear NFAT localization was higher for cis-22a-treated cells compared to the DMSO control	lower yet significant decrease in the proportion of cells showing NFAT in the nucleus	almost absent	unable to change localization patterns	–	–	–
CCCCCCCCCCCCCCCC(=O)N[C@@H](Cc1c[nH]cn1)C(=O)N[C@@H](CCCNC(=N)N)C(=O)N[C@@H](CCC(N)=O)C(=O)N[C@@H](CCCCN)C(=O)N[C@@H](Cc1c[nH]cn1)C(=O)N[C@@H](Cc1ccccc1)C(=O)N[C@@H](CCC(=O)O)C(=O)N[C@@H](CCCCN)C(=O)N[C@@H](CCCNC(=N)N)C(=O)N[C@@H](CCCNC(=N)N)C(N)=O [pal-PIP2 peptide] (Palmitoyl-HRQKHFEKRR-NH2)	–	–	–	–	–	–	–	significantly reduced sensitivity	interfered with the inhibitory effect of the pal-PIP2 peptide	regained significant resistance to inhibition

Source: publication PMC10779433, “Bidirectional Allosteric Coupling between PIP2 Binding and the Pore of the Oncochannel TRPV6” (International Journal of Molecular Sciences, 2024)
